From patent publication US10072021B2, “Compound for inhibiting binding between DX2 protein and P14/ARF protein, and pharmaceutical composition for treating or preventing cancer disease containing same as effective ingredient” (PUSAN NATIONAL UNIVERSITY INDUSTRY-UNIVERSITY COOPERATION …, priority 2014, dated 2018)

Legend:
lung tumors of DK mice = test: In vivo anticancer effect in DK mice (lung tumors); details: DK mice, non-toxic dose of Adriamycin, FIG. 10B
Protocol: All experimental procedures using laboratory animals were approved by the animal care committee of Pusan National University. DX2 (C57/BL6) and K-RasLA2 (C57/BL6) mice were obtained from Dr. Kim, Sung-Hoon and Professor. Choi, Kang-Ryeol (Yonsei University), respectively, and double Tg mice were obtained by cross-breeding of DX2 and K-RasLA2 mice. Before experiment, all mice were maintained under temperature- and light-controlled conditions (20-23° C., 12 h/12 h light/dark cycle), and provided autoclaved food and water.
Every weeks, tumor volume and body weight were measured.
After dissection of mice, tissues were fixed using 10% formalin (in PBS) for 24 hours, and embedded in paraffin blocks according to a basic tissue processing procedure. For histological analysis, embedded tissues were cut for […] by Leica microtome (Wetzlar, Germany) and transferred onto adhesive-coated slides (Marienfeld laboratory glassware, Germany). After deparaffin and rehydration, sections were then stained with H&E for routine examination.
For IHC staining, rehydrated tissue sections were incubated with antibodies to Ki-67 (Abcam, ab15580), pan-keratin (Sigma, C2931), pro-surfactant C (Millipore, AB3786), NSE (DAKO, IS612), and HER2/Neu (DAKO, A0458) for a reaction. Antigen retrieval was performed using 10 mM sodium citrate (pH 6.0) twice at a temperature of 95° C. for 10 minutes each, and endogenous peroxidase activity was blocked with 3% […] for 10 min. Then, the slides were dehydrated following a standard procedure and sealed with cover glass using mounting solution. TUNEL reaction was done as described in the manual for In Situ Cell Death Detection Kit, POD (Hoffmann-La Roche Ltd, Basel, Swizerland).
To evaluate tumor incidence, lung tissues of each mouse was fixed and embedded in paraffin. 5 sections from each mouse were examined by 3 independent investigator, who counted tumor. In addition, tumor area was calculated by tumor occupied area in total lung area using photoshop software.

H446 xenograft = system: H446 xenograft
Protocol: DK (5 month-old, N=6) mice were administered with carrier, SLCB050 (5 or 10 mg/kg), Adriamycin (1, 2.5, or 5 mg/kg), and a combination of SLCB050 and Adriamycin by intraperitoneal (i.p.) injection. After termination of the experiment of each group, mice were dissected and isolated lung tissues. For xenograft, 1×10^7 H446 cells (ATCC) were seeded in nude ice. After 4 weeks, tumor bearing mice were injected with Adriamycin, […], or a combination thereof for 6 weeks. Every weeks, tumor volume and body weight were measured.

DX2-p14/ARF binding = biological target: T1, DX2-p14/ARF binding (Homo sapiens, UniProt Q13155); test: GST pull-down assay of DX2-p14/ARF binding; details: FIG. 2A, 3A, 3D, 3E
T1 construct: made in house; host or cells: E. coli BL21(DE3) for GST-p14/ARF; DX2 from 'cell lysate or recombinant protein'
T1 sequence (Q13155 1-251 isoform Q13155-2): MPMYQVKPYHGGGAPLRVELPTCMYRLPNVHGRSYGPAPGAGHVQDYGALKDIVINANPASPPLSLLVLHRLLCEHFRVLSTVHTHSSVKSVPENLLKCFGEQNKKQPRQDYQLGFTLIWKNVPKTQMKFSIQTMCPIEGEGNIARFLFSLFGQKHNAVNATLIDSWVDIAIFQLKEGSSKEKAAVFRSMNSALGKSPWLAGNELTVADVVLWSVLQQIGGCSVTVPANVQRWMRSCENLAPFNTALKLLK
Source text: (§1) Through GST pull-down assays, more specific binding inhibitors were selected among the previously screened candidate drugs as DX2-p14/ARF binding inhibitors. That is, a p14/ARF fragment (full-length) was ligated into EcoRI and Hind II sites of pGEX-TEV vector, which is a modified vector by adding a TEV protease cleavage site to pGEX-4T1. The recombinant proteins were then expressed in E. coli strain BL21(DE3) as GST-fusion proteins. The proteins were purified by glutathione affinity chromatography.
(§2) To address direct binding between the two proteins, agarose-bead conjugated GST (negative control) or GST-target protein was incubated with cell lysate or recombinant protein in radioimmunoprecipitation assay (RIPA) buffer (NaCl, 25 mM Tris-Cl, 1% NP-40, 1% sodium deoxycholate, 0.1% SDS, protease inhibitor mixture) for 1 hour at a temperature of 4° C. for a reaction.

[1] = system: H128 cells (SCLC cell line); test: MTT viability of H128 cells; format: cell-based, human; details: MTT assay, FIG. 7
Protocol: By MTT assay, anticancer effects were confirmed based on viability of tumor cells. That is, cells were incubated in 0.5 mg/ml of MTT solution for 4 hours at a temperature of 37° C. for a reaction, and then, formazen products formed therefrom were dissolved in dimethyl sulfoxide (DMSO). Then, absorbance thereof was measured at 540 nm by using a spectrometer.

p53-p14/ARF interaction = biological target: T2, p53-p14/ARF interaction (Homo sapiens, UniProt P04637+Q8N726); test: GST pull-down assay, selectivity: p53-p14/ARF interaction; format: binding; details: FIG. 3D, 3E
T2 construct: a p14/ARF fragment (full-length) was ligated into EcoRI and Hind II sites of pGEX-TEV vector; made in house; host or cells: E. coli BL21(DE3) for GST-p14/ARF
T2 sequence (Q8N726 whole entry, the tested form may be a part): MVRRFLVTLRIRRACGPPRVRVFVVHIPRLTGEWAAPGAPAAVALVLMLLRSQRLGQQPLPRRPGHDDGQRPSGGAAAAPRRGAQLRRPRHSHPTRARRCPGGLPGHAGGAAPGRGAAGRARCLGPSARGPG
T2 sequence (P04637 whole entry, the tested form may be a part): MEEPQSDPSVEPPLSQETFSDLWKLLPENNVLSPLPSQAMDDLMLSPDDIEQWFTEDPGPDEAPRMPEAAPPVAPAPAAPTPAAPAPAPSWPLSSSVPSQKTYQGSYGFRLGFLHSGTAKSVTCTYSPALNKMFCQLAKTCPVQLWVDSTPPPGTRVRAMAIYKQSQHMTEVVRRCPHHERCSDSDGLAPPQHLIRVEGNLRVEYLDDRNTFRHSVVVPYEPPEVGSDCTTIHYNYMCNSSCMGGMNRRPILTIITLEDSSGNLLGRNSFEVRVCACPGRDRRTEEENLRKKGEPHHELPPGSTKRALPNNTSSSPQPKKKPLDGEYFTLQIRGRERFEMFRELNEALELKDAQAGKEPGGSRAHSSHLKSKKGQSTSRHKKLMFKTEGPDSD
Source text: as §1, §2

| Compound | anticancer effect, Adriamycin alone (lung tumors of DK mice) | toxicity, Adriamycin alone (H446 xenograft; Adriamycin 5 mg/kg, three times/week) | tumor growth, Adriamycin alone (H446 xenograft; Adriamycin 5 mg/kg, three times/week, FIG. 9B) | response of H446 xenograft model (H446 xenograft; single agents, FIG. 9A) | inhibitory effect on DX2-p14/ARF binding (DX2-p14/ARF binding) | viability of H128 cells [1] | melting point | effect on interaction of p53-p14/ARF (p53-p14/ARF interaction) |
| --- | --- | --- | --- | --- | --- | --- | --- | --- |
| COc1cccc2c1C(=O)c1c(O)c3c(c(O)c1C2=O)C[C@@](O)(C(=O)CO)C[C@@H]3O[C@H]1C[C@H](N)[C@H](O)[C@H](C)O1 [Adriamycin, reference compound] | did not show anticancer effect | evoked rapid weight loss and death | tumor growth was suppressed within 4 weeks | resistant |  |  |  |  |
| CC1(C)Oc2cc3oc(=O)ccc3cc2C[C@@H]1OC(=O)N/C=C/c1ccco1 [HJH141206, (7S)-(+)-2-(Furan-2-yl)vinylcarbamic acid, 8,8-dimethyl-2-oxo-6,7-dihydro-2H, 8H-pyrano[3,2-g]chromen-7-yl-ester] |  |  |  |  | showed inhibitory effects on DX2-p14/ARF binding | reduced the viability of H128 cells in a dose-dependent manner | 58.5 °C | did not affect the interaction of p53-p14/ARF |
| COc1cc(/C=C/C(=O)O[C@H]2Cc3cc4ccc(=O)oc4cc3OC2(C)C)ccc1O [SLCB36, reference compound] |  |  |  |  | did not show inhibitory effect on both binding | did not significantly affect the cell viability |  | did not show inhibitory effect on both binding |
| CC1(C)Oc2cc3oc(=O)ccc3cc2C[C@H]1OC(=O)N/C=C/c1ccco1 [HJH141204, (7R)-(−)-2-(Furan-2-yl)vinylcarbamic Acid, 8,8-dimethyl-2-oxo-6,7-dihydro-2H,8H-pyrano[3,2-g]chromen-7-yl-ester] |  |  |  |  | showed inhibitory effects on DX2-p14/ARF binding | reduced the viability of H128 cells in a dose-dependent manner |  | did not affect the interaction of p53-p14/ARF |
